The values below come from PMC9501445 (2022).

In this assay the test system is 22GT (DNA, G4) GGGTTAGGGTTAGGGTTAGGGT
In words: ITC, global fit of coupled folding/binding model. As to conditions: 100 mM K+; 1 mM cacodylate, 0.02 mM EDTA, pH 6.9, 3% DMSO, 25 °C; site 1 of 2 (intermediate I). (In ITC the heat of successive injections is recorded.)

Regarding `C[n+]1cc(NC(=O)c2cccc(C(=O)Nc3cc4ccccc4[n+](C)c3)n2)cc2ccccc21`, the “ΔG°” value was -9.6 ± 0.6 kcal/mol.
